“Also recorded” adds a separate entry of the source.
Columns and labels:
Type in all cases: physicochemical
[1] = Water sorption by dynamic vapor sorption (DVS) at 25° C.
Experimental: Water sorption behavior of […] Form C was investigated using dynamic vapor sorption (DVS) at 25° C. The relative humidity (RH) was increased from 0-80%, with a minimum equilibration time of 60 min and a maximum equilibration time of 360 min.

[2] = Compression study (hydraulic press, XRPD)
Experimental: About 10 mg of […] Form C was compressed for 5 minutes under 5 MPa or 10 MPa with a hydraulic press. Potential form change and degree of crystallinity were evaluated by XRPD.

[3] = Dry grinding study (XRPD); settings: ground manually with mortar and pestle for 3 min
Experimental: About 10 mg of […] Form C was ground manually with a mortar and a pestle for 3 min. Potential form change and degree of crystallinity were evaluated by XRPD.

[4] = Wet granulation simulation (XRPD); settings: ethanol as the granulation solvent, dried 10 min at ambient conditions
Experimental: Ethanol was added dropwise to about 10 mg of M1P Form C until the sample was wetted sufficiently. The wet sample was ground gently in a mortar and a pestle. Post granulation, the sample was dried under ambient conditions for 10 min. Potential form change and degree of crystallinity were evaluated by XRPD.

[5] = 12-month stability, polymorph characterization by XRPD and purity by chromatography; settings: −20° C., 25° C./60% RH, 40° C./75% RH, 5° C.
Experimental: […] Form C was produced in accordance with the examples above. XRPD was used on samples taken at 1, 3, 6, 9 and 12 months, and tested under four conditions: • -20° C.±5° C., • 25° C.±2° C. at 60% relative humidity (RH)±5% RH, • 40° C.±2° C. at 75% RH±5% RH and • 5° C.±3° C.

[6] = Water activity experiments to determine relative stability of Forms A, B and C in water/EtOH systems (XRPD)
Experimental: […]. Water activity experiments were conducted at 25° C. in several different water/EtOH systems to determine relative stability of M1P Forms A, B and C under these conditions.
About 5 mg each of M1P Forms A, B, and C were combined and added to 0.2 mL saturated solutions of a water/EtOH system. The resulting suspensions were stirred at 5° C., 25° C., or 50° C. for 4 days or 11 days. After 4 or 11 days, the solids (wet cakes) were isolated by centrifugation filtration and analyzed by XRPD to determine which Form(s) remained.

## O=P([O-])([O-])O[C@H]1O[C@H](CO)[C@@H](O)[C@H](O)[C@@H]1O.[K+].[K+] [Form C]
[1]; 80% RH at 25° C.
  form change by XRPD following the DVS experiment: no form change was observed
[1]; DVS, 25° C., 80% RH
  H2O absorbed: 1.9 % (w/w)
[1]; DVS, 25° C., RH 0-80%
  hygroscopicity: only slightly hygroscopic; also recorded: low hygroscopicity
[1]; DVS, 25° C., relative humidity 0%
  % Water absorption: 0.01%
[1]; DVS, 25° C., relative humidity 10%
  % Water absorption: 0.51%
[1]; DVS, 25° C., relative humidity 20%
  % Water absorption: 0.59%
[1]; DVS, 25° C., relative humidity 30%
  % Water absorption: 0.63%
[1]; DVS, 25° C., relative humidity 40%
  % Water absorption: 0.65%
[1]; DVS, 25° C., relative humidity 50%
  % Water absorption: 0.69%
[1]; DVS, 25° C., relative humidity 60%
  % Water absorption: 0.73%
[1]; DVS, 25° C., relative humidity 70%
  % Water absorption: 0.82%
[1]; DVS, 25° C., relative humidity 80%
  % Water absorption: 1.93%
[2]; compressed for 5 minutes under 5 MPa
  form change by XRPD: no form change was observed
[2]; compressed for 5 minutes under 5 MPa and 10 MPa
  degree of crystallinity by XRPD: crystallinity decreased
[2]; compressed for 5 minutes under 10 MPa
  form change by XRPD: no form change was observed
[3]
  degree of crystallinity by XRPD: crystallinity decreased
  form change by XRPD: no form change
[4]
  form change by XRPD: no form change
[5]; 1, 3, 6, 9 and 12 months
  changes to the polymorphic form by XRPD: no observed changes to the polymorphic form
[5]; 12-month stability
  changes in purity by chromatography: no substantial changes observed
[6]
  stability over water activity range: stable over a wide water activity range

From patent US20260015376A1, “CONTINUOUS FLOW METHODS FOR PRODUCING MANNOSE-1-PHOSPHATE, POLYMORPHS OF MANNOSE-1-PHOSPHATE, AND COMPOSITIONS AND USES RELATED THERETO” (Glycomine, Inc., priority 2022, published 2026)
